According to ChEMBL document CHEMBL5050828, “Inhibitors of DUX4 induction for regulation of muscle function” (2021):
Activity calls are given as the source filed them.

Legend:
[1] = target: DNA-dependent protein kinase catalytic subunit (Homo sapiens) (UniProt P78527); experiment: Inhibition of PRKDC in facioscapulohumeral muscular dystrophy (FSHD) primary pateint derived myoblasts at 0.01 to 1 uM and measured by immunofluorescence method; type: cell-based; settings: Myoblast, dose 0.01-1 µM
Myoblast [2] = experiment: Effect on PRKDC expression in facioscapulohumeral muscular dystrophy (FSHD) primary pateint derived myoblasts at 0.01 to 1 uM and measured by RT-PCR analysis; type: functional, cell-based; settings: Homo sapiens, dose 0.01-1 µM
Myoblast [3] = experiment: Effect on DUX4-target gene expression in facioscapulohumeral muscular dystrophy (FSHD) primary pateint derived myoblasts at 0.03 to 3 microM assessed as decrease in ZNF296 expression; type: functional, cell-based; settings: Homo sapiens, dose 0.03-3 µM
Myoblast [4] = experiment: Effect on DUX4-target gene expression in facioscapulohumeral muscular dystrophy (FSHD) primary pateint derived myoblasts at 0.03 to 3 microM assessed as decrease in TRIM49 expression; type: functional, cell-based; settings: Homo sapiens, dose 0.03-3 µM
Myoblast [5] = experiment: Effect on myosin heavy chain expression in facioscapulohumeral muscular dystrophy (FSHD) affected human embryonic stem cell (hESC)-derived skeletal myoblasts at 0.01 to 3 uM and measured by immunocytochemistry analysis relative to control; type: functional, cell-based; settings: dose 0.01-3 µM
Myoblast [6] = experiment: Effect on myotube gene expression in facioscapulohumeral muscular dystrophy (FSHD) primary pateint derived myoblasts at 0.03 to 3 microM assessed as decrease in MYH8 expression; type: functional, cell-based; settings: Homo sapiens, dose 0.03-3 µM
Myoblast [7] = experiment: Effect on DUX4-target gene expression in facioscapulohumeral muscular dystrophy (FSHD) primary pateint derived myoblasts at 0.03 to 3 microM assessed as decrease in PRAMEF2 expression; type: functional, cell-based; settings: Homo sapiens, dose 0.03-3 µM
Myoblast [8] = experiment: Effect on DUX4-target gene expression in facioscapulohumeral muscular dystrophy (FSHD) primary pateint derived myoblasts at 0.03 to 3 microM assessed as decrease in CCNA1 expression; type: functional, cell-based; settings: Homo sapiens, dose 0.03-3 µM
Myoblast [9] = experiment: Effect on myotube gene expression in facioscapulohumeral muscular dystrophy (FSHD) primary pateint derived myoblasts at 0.03 to 3 microM assessed as decrease in MYH3 expression; type: functional, cell-based; settings: Homo sapiens, dose 0.03-3 µM
[10] = Half-life in male CD-1 mouse at 10 mg/kg, IM measured by LC-MS/MS analysis; type: ADME, organism-based; settings: in vivo
Myoblast [11] = experiment: Effect on DUX4-target gene expression in facioscapulohumeral muscular dystrophy (FSHD) primary pateint derived myoblasts at 0.03 to 3 microM assessed as decrease in KHDC1L expression; type: functional, cell-based; settings: Homo sapiens, dose 0.03-3 µM
Myoblast [12] = experiment: Rescue of apoptosis in facioscapulohumeral muscular dystrophy (FSHD) primary pateint derived myoblasts at 0.01 to 3 uM assessed as decrease in caspase 3/7 activation and measured by live cell imaging method; type: functional, cell-based; settings: Homo sapiens, dose 0.01-3 µM
Myoblast [13] = experiment: Rescue of cell death in facioscapulohumeral muscular dystrophy (FSHD) primary pateint derived myoblasts at 0.01 to 3 uM and measured by live cell imaging method; type: functional, cell-based; settings: Homo sapiens, dose 0.01-3 µM
[14] = Downregulation of DUX4 expression in facioscapulohumeral muscular dystrophy (FSHD) affected human embryonic stem cell (hESC)-derived skeletal myoblasts and measured by immunocytochemistry analysis; type: functional, cell-based; settings: Myoblast
Myoblast [15] = experiment: Effect on DUX4-target gene expression in facioscapulohumeral muscular dystrophy (FSHD) primary pateint derived myoblasts at 0.03 to 3 microM assessed as decrease in TRIM43 expression; type: functional, cell-based; settings: Homo sapiens, dose 0.03-3 µM
Myoblast [16] = experiment: Effect on myotube gene expression in facioscapulohumeral muscular dystrophy (FSHD) primary pateint derived myoblasts at 0.03 to 3 microM assessed as decrease in DMD expression; type: functional, cell-based; settings: Homo sapiens, dose 0.03-3 µM
Myoblast [17] = experiment: Downregulation of DUX4 expression in facioscapulohumeral muscular dystrophy (FSHD) affected human embryonic stem cell (hESC)-derived skeletal myoblasts at 0.01 to 3 uM and measured by immunocytochemistry analysis relative to control; type: functional, cell-based; settings: dose 0.01-3 µM
[18] = Brain concentration in male CD-1 mouse at 10 mg/kg, IM administered as single dose and measured by LC-MS/MS analysis; type: ADME, organism-based; settings: in vivo, BLD = below limit of detection
Myoblast [19] = experiment: Effect on myotube gene expression in facioscapulohumeral muscular dystrophy (FSHD) primary pateint derived myoblasts at 0.03 to 3 microM assessed as decrease in DES expression; type: functional, cell-based; settings: Homo sapiens, dose 0.03-3 µM
Myoblast [20] = experiment: Effect on DUX4-target gene expression in facioscapulohumeral muscular dystrophy (FSHD) primary pateint derived myoblasts at 0.03 to 3 microM assessed as decrease in ZSCAN4 expression; type: functional, cell-based; settings: Homo sapiens, dose 0.03-3 µM
[21] = target: Proto-oncogene tyrosine-protein kinase Src (Homo sapiens) (UniProt P12931); experiment: Inhibition of SRC in facioscapulohumeral muscular dystrophy (FSHD) primary pateint derived myoblasts at 0.01 to 1 uM and measured by immunofluorescence method; type: cell-based; settings: Myoblast, dose 0.01-1 µM
Myoblast [22] = experiment: Effect on DNA methylation levels at 4qA regions of chromosome 4 in myotubes of facioscapulohumeral muscular dystrophy (FSHD) affected human embryonic stem cell (hESC)-derived skeletal myoblasts at 0.01 to 1 uM; type: functional, cell-based; settings: dose 0.01-1 µM
Myoblast [23] = experiment: Downregulation of DUX4 expression in facioscapulohumeral muscular dystrophy (FSHD) affected human embryonic stem cell (hESC)-derived skeletal myoblasts at 100 nM and measured by immunocytochemistry analysis relative to control; type: functional, cell-based
Myoblast [24] = experiment: Effect on myosin heavy chain expression in facioscapulohumeral muscular dystrophy (FSHD) affected human embryonic stem cell (hESC)-derived skeletal myoblasts at 100 nM and measured by immunocytochemistry analysis relative to control; type: functional, cell-based
Myoblast [25] = experiment: Effect on myotube gene expression in facioscapulohumeral muscular dystrophy (FSHD) primary pateint derived myoblasts at 0.03 to 3 microM assessed as decrease in MYOG expression; type: functional, cell-based; settings: Homo sapiens, dose 0.03-3 µM
Myoblast [26] = experiment: Effect on DUX4-target gene expression in facioscapulohumeral muscular dystrophy (FSHD) primary pateint derived myoblasts at 0.03 to 3 microM assessed as decrease in PRAMEF6 expression; type: functional, cell-based; settings: Homo sapiens, dose 0.03-3 µM
Myoblast [27] = experiment: Effect on DUX4-target gene expression in facioscapulohumeral muscular dystrophy (FSHD) primary pateint derived myoblasts at 0.03 to 3 microM assessed as decrease in LEUTX expression; type: functional, cell-based; settings: Homo sapiens, dose 0.03-3 µM
Myoblast [28] = experiment: Effect on myotube gene expression in facioscapulohumeral muscular dystrophy (FSHD) primary pateint derived myoblasts at 0.03 to 3 microM assessed as decrease in CKM expression; type: functional, cell-based; settings: Homo sapiens, dose 0.03-3 µM
Myoblast [29] = experiment: Effect on DUX4-target gene expression in facioscapulohumeral muscular dystrophy (FSHD) primary pateint derived myoblasts at 0.03 to 3 microM assessed as decrease in SPRYD5 expression; type: functional, cell-based; settings: Homo sapiens, dose 0.03-3 µM
Myoblast [30] = experiment: Effect on DNA methylation levels at D4Z4 regions of chromosome 4 in myotubes of facioscapulohumeral muscular dystrophy (FSHD) affected human embryonic stem cell (hESC)-derived skeletal myoblasts at 0.01 to 1 uM; type: functional, cell-based; settings: dose 0.01-1 µM
Myoblast [31] = experiment: Effect on SRC expression in facioscapulohumeral muscular dystrophy (FSHD) primary pateint derived myoblasts at 0.01 to 1 uM and measured by RT-PCR analysis; type: functional, cell-based; settings: Homo sapiens, dose 0.01-1 µM
[32] = Half-life in male CD-1 mouse at 50 mg/kg, IM measured by LC-MS/MS analysis; type: ADME, organism-based; settings: in vivo
Myoblast [33] = experiment: Effect on nuclei count in facioscapulohumeral muscular dystrophy (FSHD) affected human embryonic stem cell (hESC)-derived skeletal myoblasts at 100 nM and measured by immunocytochemistry analysis relative to control; type: functional, cell-based
Myoblast [34] = experiment: Effect on DUX4-target gene expression in facioscapulohumeral muscular dystrophy (FSHD) primary pateint derived myoblasts at 0.03 to 3 microM assessed as decrease in MBD3L2 expression; type: functional, cell-based; settings: Homo sapiens, dose 0.03-3 µM
[35] = Downregulation of DUX4 expression in facioscapulohumeral muscular dystrophy (FSHD) primary pateint derived myoblasts and measured by immunocytochemistry analysis; type: functional, cell-based; settings: Homo sapiens, Myoblast

Chain of DNA-dependent protein kinase catalytic subunit (Homo sapiens) (P78527 whole entry): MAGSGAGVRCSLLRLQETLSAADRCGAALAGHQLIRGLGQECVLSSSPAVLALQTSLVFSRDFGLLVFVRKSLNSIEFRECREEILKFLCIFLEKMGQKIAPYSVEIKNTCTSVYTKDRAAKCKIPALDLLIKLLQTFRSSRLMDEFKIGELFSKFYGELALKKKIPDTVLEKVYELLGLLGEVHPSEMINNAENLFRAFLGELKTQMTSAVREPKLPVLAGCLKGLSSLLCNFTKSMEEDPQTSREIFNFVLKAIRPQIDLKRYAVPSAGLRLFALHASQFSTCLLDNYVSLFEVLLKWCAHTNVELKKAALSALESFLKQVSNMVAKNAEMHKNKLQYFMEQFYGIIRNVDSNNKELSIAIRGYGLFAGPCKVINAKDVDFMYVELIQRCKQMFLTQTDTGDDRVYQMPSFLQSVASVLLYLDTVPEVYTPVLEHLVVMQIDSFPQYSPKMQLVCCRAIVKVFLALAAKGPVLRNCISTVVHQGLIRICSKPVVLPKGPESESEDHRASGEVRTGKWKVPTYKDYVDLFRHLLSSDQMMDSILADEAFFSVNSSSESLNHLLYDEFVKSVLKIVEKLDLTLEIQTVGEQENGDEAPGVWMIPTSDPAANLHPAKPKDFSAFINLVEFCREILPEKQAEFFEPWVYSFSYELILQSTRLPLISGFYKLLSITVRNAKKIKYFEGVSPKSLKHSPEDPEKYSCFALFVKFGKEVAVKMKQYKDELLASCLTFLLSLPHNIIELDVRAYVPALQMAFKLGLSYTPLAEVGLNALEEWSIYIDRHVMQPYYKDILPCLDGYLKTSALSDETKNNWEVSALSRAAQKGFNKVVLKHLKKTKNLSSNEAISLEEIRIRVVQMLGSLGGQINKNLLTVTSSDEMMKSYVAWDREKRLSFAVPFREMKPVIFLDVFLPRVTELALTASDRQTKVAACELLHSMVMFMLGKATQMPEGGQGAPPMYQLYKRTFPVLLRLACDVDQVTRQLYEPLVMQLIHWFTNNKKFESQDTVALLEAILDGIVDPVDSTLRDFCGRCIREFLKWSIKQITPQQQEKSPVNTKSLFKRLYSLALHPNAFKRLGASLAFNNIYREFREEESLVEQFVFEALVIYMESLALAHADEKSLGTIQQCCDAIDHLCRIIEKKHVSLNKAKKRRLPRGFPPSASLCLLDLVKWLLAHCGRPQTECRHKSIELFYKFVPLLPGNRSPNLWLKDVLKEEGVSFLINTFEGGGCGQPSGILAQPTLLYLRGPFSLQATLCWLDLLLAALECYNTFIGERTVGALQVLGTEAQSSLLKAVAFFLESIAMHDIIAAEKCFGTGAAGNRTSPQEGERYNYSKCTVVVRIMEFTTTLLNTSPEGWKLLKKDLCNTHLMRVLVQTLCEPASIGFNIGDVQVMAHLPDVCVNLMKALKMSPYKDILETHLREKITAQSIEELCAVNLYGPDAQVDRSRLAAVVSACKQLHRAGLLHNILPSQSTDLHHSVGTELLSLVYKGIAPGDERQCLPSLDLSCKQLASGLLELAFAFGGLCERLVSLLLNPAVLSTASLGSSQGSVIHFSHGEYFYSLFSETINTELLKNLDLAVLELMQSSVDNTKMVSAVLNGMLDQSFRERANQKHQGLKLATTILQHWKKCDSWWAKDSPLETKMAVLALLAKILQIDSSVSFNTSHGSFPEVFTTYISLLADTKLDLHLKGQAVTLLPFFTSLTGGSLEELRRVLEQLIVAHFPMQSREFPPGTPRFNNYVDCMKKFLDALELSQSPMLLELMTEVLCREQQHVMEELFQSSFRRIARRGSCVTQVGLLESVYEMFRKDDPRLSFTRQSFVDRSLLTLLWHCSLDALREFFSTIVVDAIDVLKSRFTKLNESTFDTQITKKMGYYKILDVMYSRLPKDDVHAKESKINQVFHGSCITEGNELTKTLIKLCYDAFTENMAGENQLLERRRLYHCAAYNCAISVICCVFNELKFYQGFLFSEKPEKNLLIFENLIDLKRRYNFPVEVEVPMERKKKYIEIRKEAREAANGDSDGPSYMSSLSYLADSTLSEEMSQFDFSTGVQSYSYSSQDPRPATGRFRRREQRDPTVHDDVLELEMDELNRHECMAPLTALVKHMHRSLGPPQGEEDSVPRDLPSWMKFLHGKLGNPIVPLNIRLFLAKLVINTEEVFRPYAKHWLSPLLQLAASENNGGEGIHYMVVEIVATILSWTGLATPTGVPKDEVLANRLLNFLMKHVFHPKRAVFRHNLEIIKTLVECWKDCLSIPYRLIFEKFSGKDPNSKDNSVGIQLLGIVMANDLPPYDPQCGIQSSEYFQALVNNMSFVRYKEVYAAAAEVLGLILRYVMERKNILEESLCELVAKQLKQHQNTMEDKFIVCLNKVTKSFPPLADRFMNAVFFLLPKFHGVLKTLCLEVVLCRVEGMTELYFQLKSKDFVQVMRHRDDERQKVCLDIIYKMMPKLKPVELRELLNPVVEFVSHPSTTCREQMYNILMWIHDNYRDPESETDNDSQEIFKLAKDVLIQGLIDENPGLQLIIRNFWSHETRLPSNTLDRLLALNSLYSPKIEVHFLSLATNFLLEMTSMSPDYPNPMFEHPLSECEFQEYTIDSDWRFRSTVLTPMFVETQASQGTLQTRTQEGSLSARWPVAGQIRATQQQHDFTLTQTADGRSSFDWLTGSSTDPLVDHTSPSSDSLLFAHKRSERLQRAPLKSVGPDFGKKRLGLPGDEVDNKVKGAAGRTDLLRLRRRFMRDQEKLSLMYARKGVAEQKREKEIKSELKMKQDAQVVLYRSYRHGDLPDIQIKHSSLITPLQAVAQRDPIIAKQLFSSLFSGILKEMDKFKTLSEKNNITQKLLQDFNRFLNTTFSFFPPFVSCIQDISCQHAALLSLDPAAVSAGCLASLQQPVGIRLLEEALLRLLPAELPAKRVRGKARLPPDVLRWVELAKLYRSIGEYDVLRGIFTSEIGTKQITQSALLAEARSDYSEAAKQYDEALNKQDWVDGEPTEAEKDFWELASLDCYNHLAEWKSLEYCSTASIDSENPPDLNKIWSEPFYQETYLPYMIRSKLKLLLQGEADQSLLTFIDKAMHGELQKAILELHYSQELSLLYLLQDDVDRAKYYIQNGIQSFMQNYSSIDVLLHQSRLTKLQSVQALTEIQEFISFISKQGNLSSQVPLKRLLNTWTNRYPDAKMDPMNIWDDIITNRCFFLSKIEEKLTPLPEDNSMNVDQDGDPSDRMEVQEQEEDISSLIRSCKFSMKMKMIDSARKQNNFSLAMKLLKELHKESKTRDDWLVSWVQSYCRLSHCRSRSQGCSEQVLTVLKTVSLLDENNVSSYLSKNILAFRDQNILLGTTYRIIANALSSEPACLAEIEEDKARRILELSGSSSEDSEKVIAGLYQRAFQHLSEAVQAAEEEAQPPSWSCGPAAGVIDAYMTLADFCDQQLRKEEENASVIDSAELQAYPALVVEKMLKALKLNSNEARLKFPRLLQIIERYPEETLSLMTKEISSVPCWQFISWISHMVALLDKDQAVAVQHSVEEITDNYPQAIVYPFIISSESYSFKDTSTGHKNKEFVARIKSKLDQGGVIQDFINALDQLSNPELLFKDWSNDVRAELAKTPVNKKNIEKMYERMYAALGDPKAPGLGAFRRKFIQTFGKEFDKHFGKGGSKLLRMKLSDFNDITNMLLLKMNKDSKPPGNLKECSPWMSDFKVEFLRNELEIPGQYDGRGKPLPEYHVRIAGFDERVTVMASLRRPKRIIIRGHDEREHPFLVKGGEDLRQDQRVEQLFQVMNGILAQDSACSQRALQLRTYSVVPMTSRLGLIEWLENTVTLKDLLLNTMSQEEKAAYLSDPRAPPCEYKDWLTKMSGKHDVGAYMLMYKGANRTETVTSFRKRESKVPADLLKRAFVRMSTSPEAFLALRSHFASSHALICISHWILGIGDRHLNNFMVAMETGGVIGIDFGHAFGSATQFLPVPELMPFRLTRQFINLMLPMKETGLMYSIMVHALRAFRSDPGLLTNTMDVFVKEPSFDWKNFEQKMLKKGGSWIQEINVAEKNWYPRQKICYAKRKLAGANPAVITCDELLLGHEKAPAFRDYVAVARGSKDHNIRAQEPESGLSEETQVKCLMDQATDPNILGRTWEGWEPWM
Chain of Proto-oncogene tyrosine-protein kinase Src (Homo sapiens) (P12931 2-536 limits assumed): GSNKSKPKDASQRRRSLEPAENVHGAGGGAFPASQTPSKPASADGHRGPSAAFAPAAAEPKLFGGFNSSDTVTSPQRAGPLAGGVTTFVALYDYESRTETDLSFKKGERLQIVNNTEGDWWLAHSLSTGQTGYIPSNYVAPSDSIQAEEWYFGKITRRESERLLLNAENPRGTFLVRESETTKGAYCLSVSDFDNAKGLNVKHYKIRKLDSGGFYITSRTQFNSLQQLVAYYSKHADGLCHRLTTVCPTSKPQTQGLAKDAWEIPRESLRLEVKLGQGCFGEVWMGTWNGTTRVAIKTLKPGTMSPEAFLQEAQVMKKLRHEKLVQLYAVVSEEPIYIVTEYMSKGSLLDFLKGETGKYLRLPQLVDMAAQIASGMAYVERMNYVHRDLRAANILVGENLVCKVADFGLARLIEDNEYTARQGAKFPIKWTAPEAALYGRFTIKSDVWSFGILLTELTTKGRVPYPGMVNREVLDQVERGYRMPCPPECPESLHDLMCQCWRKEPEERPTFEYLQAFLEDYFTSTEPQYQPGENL

CNC(=O)c1cc(Oc2ccc(NC(=O)Nc3cc(C(C)(C)C)nn3-c3ccc4ncccc4c3)c(F)c2)ccn1 [REBASTINIB]
37.9 µM: EC50 [14]
inactive: Activity (Myoblast [2]) | Activity (Myoblast [5]) | Activity (Myoblast [6]) | Activity (Myoblast [9]) | Activity (Myoblast [16]) | Activity (Myoblast [19]) | Activity (Myoblast [22]) | Activity (Myoblast [24]) | Activity (Myoblast [25]) | Activity (Myoblast [28]) | Activity (Myoblast [30]) | Activity (Myoblast [31]) | Activity (Myoblast [33])
0.1 µM: IC50 [35]
Bld: Drug uptake [18]
active: inhibition [1] | Activity (Myoblast [3]) | Activity (Myoblast [4]) | Activity (Myoblast [7]) | Activity (Myoblast [8]) | Activity (Myoblast [11]) | Activity (Myoblast [12]) | Activity (Myoblast [13]) | Activity (Myoblast [15]) | Activity (Myoblast [17]) | Activity (Myoblast [20]) | inhibition [21] | Activity (Myoblast [23]) | Activity (Myoblast [26]) | Activity (Myoblast [27]) | Activity (Myoblast [29]) | Activity (Myoblast [34])
5.59 h: half-life [10]
8.1 h: half-life [32]
